Patent US20200331904A1, “3-AMINO-[1,2,4]-TRIAZOLE DERIVATIVES AND THEIR USE FOR CONTROLLING UNDESIRED PLANT GROWTH” (Bayer CropScience Aktiengesellschaft, priority 2017, published 2020)

Assays:
Format in all cases: in vivo
Details in all cases: application rate 320 g/ha, scored visually after about 3 weeks
Matricaria inodora = experiment: Pre-emergence herbicidal efficacy, MATIN
Excerpt: (§1) C.1 Pre-Emergence Herbicidal Action and Crop Plant Compatibility
(§2) Seeds of monocotyledonous and dicotyledonous weed plants and crop plants are placed in plastic or organic planting pots and covered with soil. The compounds of the invention, formulated in the form of wettable powders (WP) or as emulsion concentrates (EC), are then applied onto the surface of the covering soil as aqueous suspension or emulsion with addition of 0.5% additive at a water application rate of […] (converted). After the treatment, the pots are placed in a greenhouse and kept under good growth conditions for the trial plants. After about 3 weeks, the effect of the preparations is scored visually in comparison with untreated controls as percentages. For example, 100% activity=the plants have died, 0% activity=like control plants.
(§3) ABUTH: Abutilon theophrasti ALOMY: Alopecurus myosuroides AMARE: Amaranthus retroflexus AVEFA: Avena fatua CYPES: Cyperus esculentus ECHCG: Echinochloa crus-galli LOLMU: Lolium multiflorum MATIN: Matricaria inodora PHBPU: Ipomoea purpurea POLCO: Polygonum convolvulus SETVI: Setaria viridis STEME: Stellaria media VERPE: Veronica persica VTOTR: Viola tricolor

Stellaria media = experiment: Pre-emergence herbicidal efficacy, STEME
Excerpt: as §1, §2, §3

Viola tricolor = experiment: Pre-emergence herbicidal efficacy, VIOTR
Excerpt: as §1, §2, §3

Compound	Herbicidal efficacy against MATIN (Matricaria inodora) [%]	Herbicidal efficacy against STEME (Stellaria media) [%]	Herbicidal efficacy against VIOTR (Viola tricolor) [%]
c1ccc2c(c1)OCCC2Nc1nc2n(n1)CCCS2 (racemic) [Example I-204]	100	100	
c1ccc2c(c1)CCCC2Nc1nc2n(n1)CCCS2 (racemic) [Example I-209]	100	100	100
O=C(C1CC1)N1CCn2nc(NC3CCCc4ccccc43)nc2C1 (stereo not shown) [Example I-060]	100	100	90
CC(=O)N1CCn2nc(NC3CCCc4ccccc43)nc2C1 (stereo not shown) [Example I-061]	100	100	100
O=S(=O)(Cc1ccccc1)N1CCn2nc(NC3CCOc4ccccc43)nc2C1 (stereo not shown) [Example I-076]		90	100
O=S(=O)(Cc1ccccc1)N1CCn2nc(NC3CCCc4ccccc43)nc2C1 (stereo not shown) [Example I-078]	70	90	100
CC(C)S(=O)(=O)N1CCn2nc(NC3CCCc4ccccc43)nc2C1 (stereo not shown) [Example I-094]	100	100	100
CS(=O)(=O)N1CCn2nc(NC3CCCc4ccccc43)nc2C1 (stereo not shown) [Example I-097]	100	100	100
Cc1ccc2c(c1)[C@H](Nc1nc3n(n1)CCNC3)CCC2 [Example I-157]	80	100	100
CC(=O)N1CCn2nc(N[C@@H]3CCc4ccccc43)nc2C1 [Example I-158]	90	100	100
O=C(C1CC1)N1CCn2nc(N[C@@H]3CCc4ccccc43)nc2C1 [Example I-160]	90	100	100
O=C(c1ccccc1)N1CCn2nc(N[C@@H]3CCCc4ccccc43)nc2C1 [Example I-164]	90	100	100
Cc1ccc2c(c1)C(Nc1nc3n(n1)CCN(C(=O)c1ccccc1)C3)C(C)C2 (stereo not shown) [Example I-166]	90	100	100
Cc1ccc2c(c1)C(Nc1nc3n(n1)CCN(C(=O)c1cccc(C(F)(F)F)c1)C3)C(C)C2 (stereo not shown) [Example I-168]	80	90	100
Cc1ccc2c(c1)C(Nc1nc3n(n1)CCN(C(=O)c1ccccc1Cl)C3)C(C)C2 (stereo not shown) [Example I-169]	90	100	100
Cc1ccc2c(c1)C(Nc1nc3n(n1)CCN(C(=O)C1CCCCC1)C3)C(C)C2 (stereo not shown) [Example I-172]	90	100	100
Cc1ccc2c(c1)[C@H](Nc1nc3n(n1)CCN(C(=O)c1ccccc1)C3)CC2 [Example I-174]	90	100	100
Cc1ccc2c(c1)[C@H](Nc1nc3n(n1)CCN(C(=O)c1cccc(C(F)(F)F)c1)C3)CC2 [Example I-176]	80	80	90

Compound	Herbicidal efficacy against MATIN (Matricaria inodora) [%]	Herbicidal efficacy against STEME (Stellaria media) [%]	Herbicidal efficacy against VIOTR (Viola tricolor) [%]
Cc1ccc2c(c1)[C@H](Nc1nc3n(n1)CCN(C(=O)c1ccccc1Cl)C3)CC2 [Example I-177]	90	100	100
Cc1ccc2c(c1)[C@H](Nc1nc3n(n1)CCN(C(=O)c1cccc(Cl)c1)C3)CC2 [Example I-178]	70	100	100
Cc1ccc2c(c1)[C@H](Nc1nc3n(n1)CCN(C(=O)c1ccc(Cl)cc1)C3)CC2 [Example I-179]	90	100	70
Cc1ccc2c(c1)[C@H](Nc1nc3n(n1)CCN(C(=O)c1ccccc1)C3)CCC2 [Example I-181]	100	100	100
Cc1ccc2c(c1)[C@H](Nc1nc3n(n1)CCN(C(=O)c1cccc(C(F)(F)F)c1)C3)CCC2 [Example I-183]	90	100	90
Cc1ccc2c(c1)[C@H](Nc1nc3n(n1)CCN(C(=O)c1ccccc1Cl)C3)CCC2 [Example I-184]	90	100	100
Cc1ccc2c(c1)[C@H](Nc1nc3n(n1)CCN(C(=O)c1cccc(Cl)c1)C3)CCC2 [Example I-185]	90	100	100
Cc1ccc2c(c1)[C@H](Nc1nc3n(n1)CCN(C(=O)c1ccc(Cl)cc1)C3)CCC2 [Example I-186]	80	100	100
c1ccc2c(c1)OCCC2Nc1nc2n(n1)CCCCS2 (stereo not shown) [Example I-211]	100	100	100
c1ccc2c(c1)CCC2Nc1nc2n(n1)CCCCS2 (stereo not shown) [Example I-212]	100	100	100
c1ccc2c(c1)CCCC2Nc1nc2n(n1)CCCCS2 (stereo not shown) [Example I-216]	100	100	100
O=C1CCn2nc(NC3CCc4ccccc43)nc2N1CC1CCCCC1 (stereo not shown) [Example I-223]	90	100	90
O=C1CCn2nc(NC3CCCc4ccccc43)nc2N1CC1CC1 (stereo not shown) [Example I-228]	100	100	100
O=S1(=O)CCCn2nc(NC3CCOc4ccccc43)nc21 (stereo not shown) [Example I-242]	100	80	
O=S1(=O)CCCn2nc(NC3CCCc4ccccc43)nc21 (stereo not shown) [Example I-252]	100	100	
O=C1CCn2nc(NC3CCOc4ccccc43)nc2N1CC1CCCCC1 (stereo not shown) [Example I-255]		90	100
CC(C)N1C(=O)CCn2nc(NC3CCCc4ccccc43)nc21 (stereo not shown) [Example I-262]		100	100
Cc1ccc2c(c1)C(Nc1nc3n(n1)CCCN3S(=O)(=O)C(C)C)CCC2 (stereo not shown) [Example I-325]		100	
